Assay results as given in PubChem BioAssay AID743151 (Broad Institute, 2013).
Activity calls are given as the source filed them.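 Rule for the calls: active = IC50 under 100 nM in each of the cell lines carrying a mutated TP53 gene; inactive = the rest.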

What was measured:
Experiment in all cases: cell killing across TP53-mutant lines, dose response, HeLa, COLO741, H2122, CellTiter-Glo, dry powder (AID 743151)
[1] = tested on: H2122 TP53-mutant viability, CellTiter-Glo, 48 h; details: measured here: H2122 viability IC50
[2] = tested on: HeLa TP53-mutant viability, CellTiter-Glo, 48 h
[3] = tested on: COLO741 TP53-mutant viability, CellTiter-Glo, 48 h; details: measured here: COLO741 viability IC50

Row | Compound | IC50 [1] [nM] | IC50 [2] | IC50 [3] [nM]
1 | C[C@@H]1CC(=O)NN=C1c1ccc(C2CCCCC2)cc1 | 28.7 | 7.27 nM | 11.3
2 | COc1cc2c(cc1OC)-c1cc(=Nc3c(C)cc(C)cc3C)n(C)c(=O)n1CC2 | > 10000 | > 10000 nM (inactive) | > 10000
3 | C[C@@H]1CC(=O)NN=C1c1ccc(-c2cncnc2)cc1 | 36.5 | 12.5 nM | 19.6
4 | CC(=O)Nc1ccc(C2=NNC(=O)C[C@H]2C)cc1 | 12.7 | 4.93 nM | 7.65
5 | CCN1N=C(c2ccc(N(CC)CC)cc2)[C@H](C)CC1=O | > 10000 | > 10000 nM (inactive) | > 10000
6 | CCN(CC)c1ccc(C2=NNC(=O)CC2C)cc1[N+](=O)[O-] (stereo unspecified) | 13.4 | 6.65 nM | 12
7 | C[C@@H]1CC(=O)NN=C1c1ccc(Cl)cc1 | 79.9 | 32.7 nM | 42.6
8 | O=C1CN2Cc3c(ccc(Cl)c3Cl)N=C2N1 | 17.1 | 7.65 nM | 12
9 | C[C@@H]1CC(=O)NN=C1c1ccc(N2CCOCC2)c(F)c1 | 3.17 | 1.59 nM | 2.88
10 | C[C@@H]1CC(=O)NN=C1c1ccc(F)c(F)c1 | 46.2 | 22.4 nM | 33.3
11 | C[C@H]1CC(=O)NN=C1c1ccc(N2CCOCC2)c(F)c1 | > 10000 | > 10000 nM (inactive) | > 10000
12 | C[C@@H]1CC(=O)NN=C1c1ccc(N2CCOCC2)cc1 | 30 | 13.2 nM | 20
